Test results from patent publication US5945422A, “N-oxides of amino containing pyrido [2,3-D] pyrimidines” (Warner-Lambert Company, priority 1998, dated 1999).

Legend:
Format in all cases: biochemical
[1] = target: T1, mouse PDGF-β receptor tyrosine kinase (Mus musculus, UniProt P05622); assay: PDGF receptor tyrosine kinase assay (PDGFr-TK); conditions: 10 min at 25° C., glutamate-tyrosine co-polymer substrate; read-out: PDGFr-TK inhibition, IC50
T1 construct: amplify a fragment of DNA that codes for the intracellular tyrosine kinase domain; made in house; host or cells: SF9 insect cells, baculovirus (cell lysate used)
T1 sequence (P05622 599-961 limits assumed): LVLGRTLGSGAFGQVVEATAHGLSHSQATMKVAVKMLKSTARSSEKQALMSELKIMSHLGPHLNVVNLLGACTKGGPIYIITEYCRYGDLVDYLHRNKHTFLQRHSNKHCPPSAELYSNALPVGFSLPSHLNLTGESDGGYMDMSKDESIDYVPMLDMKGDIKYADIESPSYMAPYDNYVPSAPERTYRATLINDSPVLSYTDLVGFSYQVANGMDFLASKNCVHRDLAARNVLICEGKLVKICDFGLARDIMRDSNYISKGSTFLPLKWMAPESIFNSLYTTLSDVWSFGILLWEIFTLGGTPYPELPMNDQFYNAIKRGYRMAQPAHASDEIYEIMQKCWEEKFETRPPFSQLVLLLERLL
Experimental: SF9 insect cells were infected with the virus to overexpress the protein, and the cell lysate was used for the assay. […] The reaction was terminated by the addition of 100 μL of 30% trichloroacetic acid (TCA) containing 20 mM sodium pyrophosphate and precipitation of material onto glass fiber filter mats (Wallac). […] Nonspecific activity was defined as radioactivity retained on the filters following incubation of samples with buffer alone (no enzyme). Specific enzymatic activity was defined as total activity (enzyme plus buffer) minus nonspecific activity.

[2] = target: T2, human FGF-1 (flg) receptor tyrosine kinase (Homo sapiens, UniProt P11362); assay: FGF receptor tyrosine kinase assay (FGFr-TK); conditions: 10 min at 25° C., glutamate-tyrosine co-polymer substrate; read-out: FGFr-TK inhibition, IC50
T2 construct: amplify a fragment of DNA that codes for the intracellular tyrosine kinase domain; made in house; host or cells: SF9 insect cells, baculovirus (cell lysate used)
T2 sequence (P11362 478-767 limits assumed): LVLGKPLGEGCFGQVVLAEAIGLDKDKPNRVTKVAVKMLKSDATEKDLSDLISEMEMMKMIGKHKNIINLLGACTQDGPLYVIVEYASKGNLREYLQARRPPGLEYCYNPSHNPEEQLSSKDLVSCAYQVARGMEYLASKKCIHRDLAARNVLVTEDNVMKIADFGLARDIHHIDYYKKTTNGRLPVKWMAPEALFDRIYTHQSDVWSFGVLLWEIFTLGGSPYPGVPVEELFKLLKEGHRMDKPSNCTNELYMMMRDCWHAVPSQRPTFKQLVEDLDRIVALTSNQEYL
Source text: PDGF and FGF Receptor Tyrosine Kinase Assays
Full length cDNAs for the mouse PDGF-β and human FGF-1 (flg) receptor tyrosine kinases were obtained from J. Escobedo and prepared as described in J. Biol. Chem., 262:1482-1487 […], and PCR primers were designed to amplify a fragment of DNA that codes for the intracellular tyrosine kinase domain. The fragment was melded into a baculovirus vector, cotransfected with AcMNPV DNA, and the recombinant virus isolated. SF9 insect cells were infected with the virus to overexpress the protein, and the cell lysate was used for the assay. […] Briefly, to each well was added 82.5 μL of incubation buffer containing 25 mM Hepes (pH 7.0), 150 mM NaCl, 0.1% Triton X-100, 0.2 mM PMSF, 0.2 mM Na3 VO4, 10 mM MnCl2, and 750 μg/mL of Poly (4:1) glutamate-tyrosine followed by 2.5 μL of inhibitor and 5 μL of enzyme lysate (7.5 μg/μL FGF-TK or 6.0 μg/μL PDGF-TK) to initiate the reaction. Following a 10 minute incubation at 25° C., 10 μL of γ^32 P-ATP (0.4 μCi plus 50 μM ATP) was added to each well and samples were incubated for an additional 10 minutes at 25° C. […] Nonspecific activity was defined as radioactivity retained on the filters following incubation of samples with buffer alone (no enzyme). […]

C-src kinase = target: T3, C-src kinase (Homo sapiens, UniProt P12931); assay: C-src kinase assay; conditions: poly GluTyr substrate, 10 min, room temperature; read-out: C-src TK inhibition, IC50
T3 construct: made in house; host or cells: baculovirus infected insect cells
T3 sequence (P12931 whole entry): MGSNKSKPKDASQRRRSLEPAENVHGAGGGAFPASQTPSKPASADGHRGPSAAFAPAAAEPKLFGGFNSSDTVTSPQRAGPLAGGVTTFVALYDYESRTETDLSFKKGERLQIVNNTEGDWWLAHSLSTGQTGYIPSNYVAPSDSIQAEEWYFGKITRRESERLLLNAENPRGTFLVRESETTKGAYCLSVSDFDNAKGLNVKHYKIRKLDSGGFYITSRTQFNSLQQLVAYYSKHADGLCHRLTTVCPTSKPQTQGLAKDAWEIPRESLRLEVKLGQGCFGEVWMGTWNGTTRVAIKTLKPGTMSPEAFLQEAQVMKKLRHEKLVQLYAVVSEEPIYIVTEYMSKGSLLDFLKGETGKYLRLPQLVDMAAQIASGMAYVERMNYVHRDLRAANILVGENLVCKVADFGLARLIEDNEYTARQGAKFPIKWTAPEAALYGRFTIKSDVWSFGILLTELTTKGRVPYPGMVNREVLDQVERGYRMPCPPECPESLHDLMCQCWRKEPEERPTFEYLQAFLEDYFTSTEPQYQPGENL
Experimental: The antibody, covalently linked to 0.65-μm latex beads, is added to a suspension of insect cell lysis buffer comprised of 150 mM NaCl, 50 mM Tris pH 7.5, 1 mM DTT, 1% NP-40, 2 mM EGTA, 1 mM sodium vanadate, 1 mM PMSF, 1 μg/mL each of leupeptin, pepstatin, and aprotinin. […] At the end of the lysate incubation, the beads are rinsed 3 times in lysis buffer, resuspended in lysis buffer containing 10% glycerol, and frozen. These latex beads are thawed, rinsed 3 times in assay buffer which is comprised of 40 mM tris pH 7.5, 5 mM MgCl2, and suspended in the same buffer. […] The reaction is started at room temperature by addition of the ATP and quenched 10 minutes later by the addition of 125 μL of 30% TCA, 0.1M sodium pyrophosphate for 5 minutes on ice. The plate is then filtered and the wells washed with two 250-μL aliquots of 15% TCA, 0.1M pyrophosphate. The filters are punched, counted in a liquid scintillation counter, and the data examined for inhibitory activity in comparison to a known inhibitor such as erbstatin. The method is described more fully in J. Med. Chem., 37:598-609 (1994).

IC50 [1]: 70 nM | IC50 [2]: 63 nM | IC50 (C-src kinase): 15 nM
SMILES: CC[N+]([O-])(CC)CCOc1ccc(Nc2ncc3cc(-c4c(Cl)cccc4Cl)c(=O)n(C)c3n2)cc1 [Example 43, 6-(2,6-Dichlorophenyl)-2-[4-[2-(diethylamino)ethoxyl-thenyl]aminol-8-methyl-pyridor2,3-d]pyrimidin-7 (8H)-one, N^ω -oxide]
